We go through 15 compounds from patent US20090012056A1, “Quinoline Compounds Capable of Binding the Cb2 and/or the 5-Ht6 Receptor” (GLAXO GROUP LIMITED, priority 2005, published 2009).

Assay [1] has as its target T1, human cloned 5-HT6 receptors (Homo sapiens, UniProt P50406).
T1 construct: expressed in transfected cells; host or cells: HeLa cells (membranes)
Kind of assay: Cyclase assay (cAMP production in membranes of HeLa 5HT6 cells, antagonism of 5-HT). The class given is biochemical. As to conditions: cyclase assay with 5-HT at 4xEC50, read-out: fpKi (functional pKi, antagonist potency) (converted). The procedure:
0.5 μl of test compound in 100% dimethylsulfoxide (DMSO) was added to a white, solid 384 well assay plate (for dose response measurements the top of the concentration range is 7.5 μM final). 10 μl of washed membranes of HeLa 5HT6 cells (for preparation see WO 98/27081) in basic buffer (50 mM HEPES pH 7.4 (KOH), 1 mM MgCl2, 100 mM NaCl, 1 μl/ml 3-isobutyl-1-methylxanthine (IBMX) (Sigma-Aldrich)) was added to all wells followed by 10 μl 2×ATP buffer (100 μl/ml ATP and 1 μl/ml 3-Isobutyl-1-methylxanthine (IBMX) (Sigma-Aldrich)) with 5-HT (at a concentration equivalent to a dose response of 4×EC50). The resultant mixture was then incubated at room temperature for 30-45 minutes to allow cAMP production.
cAMP production was then measured using the DiscoveRx™ HitHunter™ chemiluminescence cAMP assay kit (DiscoveRx Corporation, 42501 Albrae Street, Fremont, Calif. 94538; Product Code: 90-0004L) or any other suitable cAMP measurement assay.
IC50 values were estimated from arbitrary designated unit (ADU) measurements from a Perkin Elmer Viewlux instrument using a four parameter logistic curve fit within EXCEL (Bowen, W. P. and Jerman, J. C. (1995), Nonlinear regression using spreadsheets. Trends in Pharmacol. Sci., 16, 413-417). Functional Ki values were calculated using the method of Cheng, Y. C. and Prussof, W. H. (Biochemical Pharmacol (1973) 22 3099-3108). pIC50 and fpKi are the negative log 10 of the molar IC50 and functional Ki respectively.
For orientation: Changes in cAMP serve as a functional read-out for many G protein-coupled receptors.

The target of assay [2] is T2, human cannabinoid CB2 receptor (Homo sapiens, UniProt P34972).
T2 construct: expressed in transfected cells; host or cells: Saccharomyces cerevisiae strain MMY23
T2 sequence (P34972 whole entry): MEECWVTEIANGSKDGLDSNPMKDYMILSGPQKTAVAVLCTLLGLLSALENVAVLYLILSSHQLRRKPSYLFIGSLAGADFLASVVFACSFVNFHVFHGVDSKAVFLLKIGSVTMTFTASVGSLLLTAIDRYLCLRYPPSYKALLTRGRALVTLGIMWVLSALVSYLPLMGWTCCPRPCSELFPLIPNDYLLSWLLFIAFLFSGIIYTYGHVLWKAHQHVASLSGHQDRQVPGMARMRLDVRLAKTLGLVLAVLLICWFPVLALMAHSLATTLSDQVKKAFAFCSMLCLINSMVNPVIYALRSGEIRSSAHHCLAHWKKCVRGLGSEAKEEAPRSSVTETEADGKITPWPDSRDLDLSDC
Kind of assay: Cannabinoid CB2 receptor agonist activity in yeast cells expressing the human CB2 receptor (FDGlu fluorescence). As to conditions: 24 hours at 30° C., read-out: pEC50 at the CB2 receptor (agonist activity) (converted). It is filed as cell-based. An excerpt:
Yeast (Saccharomyces cerevisiae) cells expressing the human cannabinoid CB2 receptor were generated by integration of an expression cassette into the ura3 chromosomal locus of yeast strain MMY23. This cassette consisted of DNA sequence encoding the human CB2 receptor flanked by the yeast GPD promoter to the 5′ end of CB2 and a yeast transcriptional terminator sequence to the 3′ end of CB2. MMY23 expresses a yeast/mammalian chimeric G-protein alpha subunit in which the C-terminal 5 amino acids of Gpa1 are replaced with the C-terminal 5 amino acids of human Gαi1/23 (as described in Brown et al. (2000), Yeast 16:11-22). Cells were grown at 30° C. in liquid Synthetic Complete (SC) yeast media (Guthrie and Fink (1991), Methods in Enzymology, Vol. 194) lacking uracil, tryptophan, adenine and leucine to late logarithmic phase (approximately 6 OD600/ml).
Agonists were prepared as 10 mM solutions in DMSO. EC50 values (the concentration required to produce 50% maximal response) were estimated using 4 fold dilutions of between 3- and 5-fold (BiomekFX, Beckman) into DMSO. Agonist solutions in DMSO (1% final assay volume) were transferred into black microtitre plates from NUNC Greiner (384-well). Cells were suspended at a density of 0.2 OD600/ml in SC media lacking histidine, uracil, tryptophan, adenine and leucine and supplemented with 10 mM 3-aminotriazole, 0.1M sodium phosphate pH 7.0, and 120 μM fluorescein di-β-D-glucopyranoside (FDGlu). This mixture (50 ul per well) was added to agonist in the assay plates (Multidrop 384, Labsystems). After incubation at 30° C. for 24 hours, fluorescence resulting from degradation of FDGlu to fluorescein due to exoglucanase, an endogenous yeast enzyme produced during agonist-stimulated cell growth, was determined using a fluorescence microtitre plate reader (Tecan Spectrofluor or LJL Analyst excitation wavelength: 485 nm; emission wavelength: 535 nm). Fluorescence was plotted against compound concentration and iteratively curve fitted using a four parameter fit to generate a concentration effect value.
Efficacy (Emax) was calculated from the equation
Emax=Max[compound X]−Min[compound X]/Max[HU210]−Min[HU210]×100% • where Max[compound X] and Min[compound X] are the fitted maximum and minimum respectively from the concentration effect curve for compound X, and Max[HU210] and Min[HU210] are the fitted maximum and minimum respectively from the concentration effect curve for (6aR,10aR)-3-(1,1′-Dimethylheptyl)-6a,7,10,10a-tetrahydro-1-hydroxy-6,6-dimethyl-6H-dibenzo[b,d]pyran-9-methanol (HU210; available from Tocris). Equieffective molar ratio (EMR) values were calculated from the equation
EMR=EC50[compound X]/EC50[HU210] • Where EC50 [compound X] is the EC50 of compound X and EC50 [HU210] is the EC50 of HU210. • pEC50 is the negative log of the EC50.

Structures can show the parent of a compound that is named as a salt.

T1 sequence (P50406 whole entry): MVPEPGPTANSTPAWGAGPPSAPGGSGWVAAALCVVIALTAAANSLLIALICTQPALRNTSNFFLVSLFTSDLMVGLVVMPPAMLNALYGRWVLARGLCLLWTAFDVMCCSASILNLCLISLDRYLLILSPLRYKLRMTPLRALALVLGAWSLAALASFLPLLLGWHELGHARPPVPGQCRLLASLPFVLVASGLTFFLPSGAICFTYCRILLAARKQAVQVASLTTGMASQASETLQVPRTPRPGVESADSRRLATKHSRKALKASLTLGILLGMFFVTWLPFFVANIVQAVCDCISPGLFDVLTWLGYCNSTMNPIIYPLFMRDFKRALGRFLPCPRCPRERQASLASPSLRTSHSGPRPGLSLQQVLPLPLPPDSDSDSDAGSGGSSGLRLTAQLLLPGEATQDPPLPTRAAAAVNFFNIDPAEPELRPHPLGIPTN

`O=S(=O)(c1ccccc1)c1cnc2c(CN3CCC(F)(F)CC3)cccc2c1` [Example 5, 8-[(4,4-Difluoro-1-piperidinyl)methyl]-3-(phenylsulfonyl)quinoline]: in assay [1], the Ki is < 100 nM. Moreover, the EC50 in assay [2] is < 1 µM.

For `CC1CCC(C)N1Cc1cccc2cc(S(=O)(=O)c3ccccc3)cnc12` (stereo not drawn) [Example 6, 8-[(2,5-Dimethyl-1-pyrrolidinyl)methyl)-3-(phenylsulfonyl)quinoline], the Ki in assay [1] was < 100 nM. The EC50 in assay [2] is ≤ 10 µM.

In the case of `CN(C)Cc1cccc2cc(S(=O)(=O)c3ccccc3)cnc12` [Example 7, N,N-Dimethyl-1-[3-(phenylsulfonyl)quinolin-8-yl]methanamine], the Ki in assay [1] is < 100 nM. In addition, the EC50 in assay [2] was ≤ 10 µM.

Regarding `CC1CCCN1Cc1cccc2cc(S(=O)(=O)c3ccccc3)cnc12` (stereo not drawn) [Example 8, 8-[(2-Methylpyrrolidin-1-yl)methyl]-3-(phenylsulfonyl)quinoline], in assay [1], the Ki was < 100 nM. Besides, the EC50 in assay [2] was ≤ 10 µM.

Regarding `CC(C)N(C)C(C)c1cccc2cc(S(=O)(=O)c3ccccc3)cnc12` (stereo not drawn) [Example 20, N-Methyl-N-{1-[3-(phenylsulfonyl)quinolin-8-yl]ethyl}propan-2-amine hydrochloride], the Ki in assay [1] was < 100 nM. The EC50 in assay [2] is < 1 µM.

For `O=S(=O)(c1ccc(F)cc1)c1cnc2c(CN3CCCC3)cccc2c1` [Example 23, 3-[(4-Fluorophenyl)sulfonyl]-8-(1-pyrrolidinylmethyl)quinoline hydrochloride], the Ki in assay [1] is < 100 nM. Also, the EC50 in assay [2] is ≤ 10 µM.

Turning to `CC(=O)N1CCN(Cc2cccc3cc(S(=O)(=O)c4ccccc4)cnc23)CC1` [Example 24, 8-[(4-acetyl-1-piperazinyl)methyl]-3-(phenylsulfonyl)quinoline hydrochloride], the Ki in assay [1] is ≤ 1000 nM. Further, the EC50 in assay [2] is ≤ 10 µM.

Take `CC(C)NCc1cccc2cc(S(=O)(=O)c3ccccc3)cnc12` [Example 25, N-{[3-(phenylsulfonyl)-8-quinolinyl]methyl}-2-propanamine hydrochloride]: the Ki in assay [1] was < 100 nM. Besides, the EC50 in assay [2] is < 1 µM.

With `CNCc1cccc2cc(S(=O)(=O)c3ccccc3)cnc12` [Example 26, N-methyl-1-[3-(phenylsulfonyl)-8-quinolinyl]methanamine hydrochloride], the Ki in assay [1] is < 100 nM. For the same compound, the EC50 in assay [2] was ≤ 10 µM.

For the compound `O=S(=O)(c1ccccc1)c1cnc2c(CN3CCCC(F)(F)C3)cccc2c1` [Example 27, 8-[(3,3-Difluoropiperidin-1-yl)methyl]-3-(phenylsulfonyl)quinoline hydrochloride], the Ki in assay [1] was > 1000 nM. Moreover, in assay [2], the EC50 is < 1 µM.

On to `COC1CCN(Cc2cccc3cc(S(=O)(=O)c4ccccc4)cnc23)CC1` [Example 28, 8-[(4-Methoxypiperidin-1-yl)methyl]-3-(phenylsulfonyl)quinoline hydrochloride], for which the Ki in assay [1] is < 100 nM. Also, in assay [2], the EC50 was < 1 µM.

For the compound `CC1CCCCN1Cc1cccc2cc(S(=O)(=O)c3ccccc3)cnc12` (stereo not drawn) [Example 29, 8-[(2-Methyl-1-piperidinyl)methyl]-3-(phenylsulfonyl)quinoline hydrochloride], the Ki in assay [1] was ≤ 1000 nM. Also, in assay [2], the EC50 is ≤ 10 µM.

For `CC1CCCN(Cc2cccc3cc(S(=O)(=O)c4ccccc4)cnc23)C1` (stereo not drawn) [Example 30, 8-[(3-Methyl-1-piperidinyl)methyl]-3-(phenylsulfonyl)quinoline hydrochloride], in assay [1], the Ki was < 100 nM. Further, in assay [2], the EC50 is < 1 µM.

In the case of `O=S(=O)(c1ccccc1)c1cnc2c(CN3CCC4(CC3)OCCO4)cccc2c1` [Example 31, 8-(1,4-Dioxa-8-azaspiro[4.5]dec-8-ylmethyl)-3-(phenylsulfonyl)quinoline hydrochloride], in assay [1], the Ki is < 100 nM. The EC50 in assay [2] was ≤ 10 µM.

On to `O=S1(=O)CCN(Cc2cccc3cc(S(=O)(=O)c4ccccc4)cnc23)CC1` [Example 32, 8-[(1,1-Dioxido-4-thiomorpholinyl)methyl]-3-(phenylsulfonyl)quinoline hydrochloride], for which the Ki in assay [1] was ≤ 1000 nM. In addition, the EC50 in assay [2] was < 1 µM.
